For one compound, Kd and IC50 results are on record in ChEMBL document CHEMBL4190370, “Emerging New Targets for the Treatment of Resistant Fungal Infections” (J Med Chem, 2018).

Assay [1] addresses T1, Mediator of RNA polymerase II transcription subunit 15 (Candida glabrata (strain ATCC 2001 / CBS 138 / JCM 3761 / NBRC 0622 /NRRL Y-65) (Yeast) (Torulopsis glabrata), UniProt Q6FRS9).
T1 sequence (Q6FRS9 whole entry): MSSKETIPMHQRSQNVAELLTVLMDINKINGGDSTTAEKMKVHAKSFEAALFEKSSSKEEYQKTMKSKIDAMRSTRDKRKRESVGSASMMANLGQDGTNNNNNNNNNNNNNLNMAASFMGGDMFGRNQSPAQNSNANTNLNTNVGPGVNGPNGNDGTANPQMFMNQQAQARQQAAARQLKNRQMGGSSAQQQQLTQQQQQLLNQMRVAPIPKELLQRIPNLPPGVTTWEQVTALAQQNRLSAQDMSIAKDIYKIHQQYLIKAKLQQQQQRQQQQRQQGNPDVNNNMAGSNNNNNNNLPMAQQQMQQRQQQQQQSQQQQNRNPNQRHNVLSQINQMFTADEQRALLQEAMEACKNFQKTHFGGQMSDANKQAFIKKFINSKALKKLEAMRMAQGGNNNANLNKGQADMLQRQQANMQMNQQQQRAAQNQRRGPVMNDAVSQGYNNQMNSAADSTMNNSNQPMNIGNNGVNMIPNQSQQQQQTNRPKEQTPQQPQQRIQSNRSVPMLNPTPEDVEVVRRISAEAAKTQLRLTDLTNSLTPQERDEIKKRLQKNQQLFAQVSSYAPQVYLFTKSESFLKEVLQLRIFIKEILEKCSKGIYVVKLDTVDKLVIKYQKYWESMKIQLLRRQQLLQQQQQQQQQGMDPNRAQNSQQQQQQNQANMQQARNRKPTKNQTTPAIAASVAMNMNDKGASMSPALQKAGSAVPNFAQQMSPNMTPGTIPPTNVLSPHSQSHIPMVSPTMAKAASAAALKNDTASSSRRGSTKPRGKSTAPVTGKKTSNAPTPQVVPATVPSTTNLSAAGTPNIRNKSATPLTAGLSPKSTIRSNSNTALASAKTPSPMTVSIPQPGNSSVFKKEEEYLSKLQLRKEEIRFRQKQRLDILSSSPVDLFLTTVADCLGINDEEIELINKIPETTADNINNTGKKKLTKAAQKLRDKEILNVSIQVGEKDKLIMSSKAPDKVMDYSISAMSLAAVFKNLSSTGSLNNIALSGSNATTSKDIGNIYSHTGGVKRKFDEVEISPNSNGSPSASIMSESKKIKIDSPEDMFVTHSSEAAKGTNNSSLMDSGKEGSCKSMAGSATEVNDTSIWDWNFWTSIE
Nature of the assay: Binding affinity to Candida glabrata Gal11A KIX domain. Also on record: species or system Nakaseomyces glabratus.

Another assay has as its system HepG2. Nature of the assay: Cytotoxicity in human HepG2 cells. The assay is classed as cell-based.

SMILES strings stand for the structures.

Consider `N#CCC(=O)NNC(=S)Nc1ccc(Cl)c(Cl)c1`, for which binding in assay [1] was put at a Kd of 320 nM. In the assay on HepG2, the IC50 – broadly, the midpoint of a concentration-inhibition curve – worked out at 100 µM.
